This is an account of results in patent US20250019387A1 (Frontier Medicines Corporation, priority 0001, published 2025).

The term IC50 denotes the concentration that gives 50% inhibition.

For the assay, the target named is KRAS G12C and cRAF (Ras-binding domain) interaction (Homo sapiens (Human), UniProt P01116, C118S/C51S/C80L/G12C). The assay is described as follows: Inhibition of KRAS G12C and cRAF binding (AlphaScreen). As to conditions: GMPPNP-loaded KRAS G12C, 19-20 hours incubation with compound; read-out: IC50 (Inhibition of KRAS G12C and cRAF Binding). The procedure, abridged: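 Compounds (DMSO) preincubated 19-20 h at room temperature, then RBD with streptavidin donor and glutathione acceptor beads added in 25 mM Hepes pH 7.4, 150 mM NaCl, 5 mM MgCl2, 0.01% Triton X-100, 2% DMSO for 60-90 min. Emission 570 nm (excitation 680 nm); IC50 by 4-parameter fit. Counter-screen used biotin-AviTag-GST instead of RBD.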
Sequence of KRAS G12C and cRAF (Ras-binding domain) interaction (P01116 other isoform, or with tags, fused parts or gaps G12C/C51S/C80L/C118S): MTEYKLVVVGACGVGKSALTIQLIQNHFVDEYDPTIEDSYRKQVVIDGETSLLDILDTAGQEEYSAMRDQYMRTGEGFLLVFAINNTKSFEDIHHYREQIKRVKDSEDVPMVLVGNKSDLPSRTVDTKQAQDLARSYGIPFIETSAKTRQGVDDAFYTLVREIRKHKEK
`COC(=O)/C=C/C(=O)N1CC[C@H](N(C)c2nc(OC[C@@H]3CCCN3C)nc3c(F)c(-c4cccc5cccc(Cl)c45)ncc23)C1` [Example 26, methyl(E)-4-((S)-3-((7-(8-chloronaphthalen-1-yl)-8-fluoro-2-(((S)-1-methylpyrrolidin-2-yl)methoxy)pyrido[4,3-d]pyrimidin-4-yl)(methyl)amino)pyrrolidin-1-yl)-4-oxobut-2-enoate]: the IC50 is above 500 nM.

As to `COC(=O)/C=C/C(=O)N1CC[C@@H](N(C)c2nc(OC[C@@H]3CCCN3C)nc3c(F)c(-c4cccc5cccc(Cl)c45)ncc23)C1` [Example 27, methyl(E)-4-((R)-3-((7-(8-chloronaphthalen-1-yl)-8-fluoro-2-(((S)-1-methylpyrrolidin-2-yl)methoxy)pyrido[4,3-d]pyrimidin-4-yl)(methyl)amino)pyrrolidin-1-yl)-4-oxobut-2-enoate], the IC50 is below 10 nM.

As for `CN(CC1CN(C#N)C1)c1nc(OCC23CCCN2CCC3)nc2c(F)c(-c3cccc4cccc(Cl)c34)ncc12` [Example 28, 3-(((7-(8-chloronaphthalen-1-yl)-8-fluoro-2-((tetrahydro-1H-pyrrolizin-7a(5H)-yl)methoxy)pyrido[4,3-d]pyrimidin-4-yl)(methyl)amino)methyl)azetidine-1-carbonitrile], the IC50 is 10 to 100 nM.

In the case of `CN(c1nc(OC[C@@H]2CCCN2C)nc2c1CCN(c1cccc3cccc(Cl)c13)C2)C1CCN(C#N)C1` (stereo partly drawn) [Example 29, 3-((7-(8-chloronaphthalen-1-yl)-2-(((S)-1-methylpyrrolidin-2-yl)methoxy)-5,6,7,8-tetrahydropyrido[3,4-d]pyrimidin-4-yl)(methyl)amino)pyrrolidine-1-carbonitrile], the IC50 was 100 to 500 nM.

`CN(CC1CN(C#N)C1)c1nc(OC[C@@H]2CCCN2C)nc2c1CCN(c1cccc3cccc(Cl)c13)C2` [Example 30, (S)-3-(((7-(8-chloronaphthalen-1-yl)-2-((1-methylpyrrolidin-2-yl)methoxy)-5,6,7,8-tetrahydropyrido[3,4-d]pyrimidin-4-yl)(methyl)amino)methyl)azetidine-1-carbonitrile]: the IC50 was above 500 nM.

Take `CN(CC1CCN(C#N)C1)c1nc(OC[C@@H]2CCCN2C)nc2c1CCN(c1cccc3cccc(Cl)c13)C2` (stereo partly drawn) [Example 31, 3-(((7-(8-chloronaphthalen-1-yl)-2-(((S)-1-methylpyrrolidin-2-yl)methoxy)-5,6,7,8-tetrahydropyrido[3,4-d]pyrimidin-4-yl)(methyl)amino)methyl)pyrrolidine-1-carbonitrile]: the IC50 was above 500 nM.

Consider `CN1CCC[C@H]1COc1nc2c(c(N3CCC(CNC#N)CC3)n1)CCN(c1cccc3cccc(Cl)c13)C2` [Example 32, (S)-N-((1-(7-(8-chloronaphthalen-1-yl)-2-((1-methylpyrrolidin-2-yl)methoxy)-5,6,7,8-tetrahydropyrido[3,4-d]pyrimidin-4-yl)piperidin-4-yl)methyl)cyanamide], for which the IC50 was above 500 nM.

`CN1CCC[C@H]1COc1nc2c(c(N(C)[C@@H]3CCN(C#N)C3)n1)CCN(c1cccc3cccc(Cl)c13)C2` [Example 33, (R)-3-((7-(8-chloronaphthalen-1-yl)-2-(((S)-1-methylpyrrolidin-2-yl)methoxy)-5,6,7,8-tetrahydropyrido[3,4-d]pyrimidin-4-yl)(methyl)amino)pyrrolidine-1-carbonitrile]: the IC50 was 100 to 500 nM.

With `CN(CCC1CN(C#N)C1)c1nc(OC[C@@H]2CCCN2C)nc2c1CCN(c1cccc3cccc(Cl)c13)C2` [Example 34, (S)-3-(2-((7-(8-chloronaphthalen-1-yl)-2-((l-methylpyrrolidin-2-yl)methoxy)-5,6,7,8-tetrahydropyrido[3,4-d]pyrimidin-4-yl)(methyl)amino)ethyl)azetidine-1-carbonitrile], the IC50 lay within 100 to 500 nM.

In the case of `CN(c1nc(OC[C@@H]2CCCN2C)nc2c(F)c(-c3cccc4cccc(Cl)c34)ncc12)C1CCN(C#N)C1` (stereo partly drawn) [Example 35, 3-((7-(8-chloronaphthalen-1-yl)-8-fluoro-2-(((S)-1-methylpyrrolidin-2-yl)methoxy)pyrido[4,3-d]pyrimidin-4-yl)(methyl)amino)pyrrolidine-1-carbonitrile], the IC50 fell in the range of 10 to 100 nM.

With `CN1CCC[C@H]1COc1nc(N(C)[C@@H]2CCN(C#N)C2)c2cnc(-c3cccc4cccc(Cl)c34)c(F)c2n1` [Example 36, (R)-3-((7-(8-chloronaphthalen-1-yl)-8-fluoro-2-(((S)-1-methylpyrrolidin-2-yl)methoxy)pyrido[4,3-d]pyrimidin-4-yl)(methyl)amino)pyrrolidine-1-carbonitrile], the IC50 was in the range of 10 to 100 nM.

Take `CN1CCC[C@H]1COc1nc2c(c(N3CC[C@@H]4CN(C#N)C[C@@H]43)n1)CCN(c1cccc3cccc(Cl)c13)C2` [Example 37, (3aR,6aR)-1-(7-(8-chloronaphthalen-1-yl)-2-(((S)-1-methylpyrrolidin-2-yl)methoxy)-5,6,7,8-tetrahydropyrido[3,4-d]pyrimidin-4-yl)hexahydropyrrolo[3,4-b]pyrrole-5(1H)-carbonitrile]: the IC50 lay in the range of 100 to 500 nM.

Consider `C[C@@H]1C[C@@H](N(C)c2nc(OC[C@@H]3CCCN3C)nc3c2CCN(c2cccc4cccc(Cl)c24)C3)CN1C#N` [Example 38, (2R,4R)-4-((7-(8-chloronaphthalen-1-yl)-2-(((S)-1-methylpyrrolidin-2-yl)methoxy)-5,6,7,8-tetrahydropyrido[3,4-d]pyrimidin-4-yl)(methyl)amino)-2-methylpyrrolidine-1-carbonitrile], for which the IC50 was above 500 nM.

`CN(c1nc(OCC23CCCN2CCC3)nc2c1CCN(c1cccc3cccc(Cl)c13)C2)[C@@H]1CCN(C#N)C1` [Example 39, (R)-3-((7-(8-chloronaphthalen-1-yl)-2-((tetrahydro-1H-pyrrolizin-7a(5H)-yl)methoxy)-5,6,7,8-tetrahydropyrido[3,4-d]pyrimidin-4-yl)(methyl)amino)pyrrolidine-1-carbonitrile]: the IC50 lay in the range of 100 to 500 nM.

For `C=CC(=O)CN(C)c1nc(OC[C@@H]2CCCN2C)nc2c1CCN(c1cccc3cccc(Cl)c13)C2` [Example 40, (S)-1-((7-(8-chloronaphthalen-1-yl)-2-((1-methylpyrrolidin-2-yl)methoxy)-5,6,7,8-tetrahydropyrido[3,4-d]pyrimidin-4-yl)(methyl)amino)but-3-en-2-one], the IC50 lay in the range of 10 to 100 nM.

Regarding `C=CC(=O)C1CN(c2nc(OC[C@@H]3CCCN3C)nc3c2CCN(c2cccc4cccc(Cl)c24)C3)C1` [Example 41, (S)-1-(1-(7-(8-chloronaphthalen-1-yl)-2-((1-methylpyrrolidin-2-yl)methoxy)-5,6,7,8-tetrahydropyrido[3,4-d]pyrimidin-4-yl)azetidin-3-yl)prop-2-en-1-one], the IC50 lay in the range of 10 to 100 nM.

On to `C=CC(=O)C1CCN(c2nc(OC[C@@H]3CCCN3C)nc3c2CCN(c2cccc4cccc(Cl)c24)C3)CC1` [Example 42, (S)-1-(1-(7-(8-chloronaphthalen-1-yl)-2-((1-methylpyrrolidin-2-yl)methoxy)-5,6,7,8-tetrahydropyrido[3,4-d]pyrimidin-4-yl)piperidin-4-yl)prop-2-en-1-one], for which the IC50 was 10 to 100 nM.

For `C=CC(=O)[C@@H]1[C@@H]2CN(c3nc(OC[C@@H]4CCCN4C)nc4c3CCN(c3cccc5cccc(Cl)c35)C4)C[C@@H]21` [Example 45, 1-((1R,5S,6R)-3-(7-(8-chloronaphthalen-1-yl)-2-(((S)-1-methylpyrrolidin-2-yl)methoxy)-5,6,7,8-tetrahydropyrido[3,4-d]pyrimidin-4-yl)-3-azabicyclo[3.1.0]hexan-6-yl)prop-2-en-1-one], the IC50 fell in the range of 10 to 100 nM.

Turning to `C=CS(=O)(=O)CCCN(C)c1nc(OC[C@@H]2CCCN2C)nc2c1CCN(c1cccc3cccc(Cl)c13)C2` [Example 46, (S)-7-(8-chloronaphthalen-1-yl)-N-methyl-2-((1-methylpyrrolidin-2-yl)methoxy)-N-(3-(vinylsulfonyl)propyl)-5,6,7,8-tetrahydropyrido[3,4-d]pyrimidin-4-amine], the IC50 is above 500 nM.

Turning to `C=CS(=O)(=O)CCN(C)c1nc(OC[C@@H]2CCCN2C)nc2c1CCN(c1cccc3cccc(Cl)c13)C2` [Example 47, (S)-7-(8-chloronaphthalen-1-yl)-N-methyl-2-((1-methylpyrrolidin-2-yl)methoxy)-N-(2-(vinylsulfonyl)ethyl)-5,6,7,8-tetrahydropyrido[3,4-d]pyrimidin-4-amine], the IC50 was 10 to 100 nM.

Consider `C=CS(=O)(=O)[C@H]1C[C@H](N(C)c2nc(OC[C@@H]3CCCN3C)nc3c2CCN(c2cccc4cccc(Cl)c24)C3)C1` [Example 48, 7-(8-chloronaphthalen-1-yl)-N-methyl-2-(((S)-1-methylpyrrolidin-2-yl)methoxy)-N-((1r,3S)-3-(vinylsulfonyl)cyclobutyl)-5,6,7,8-tetrahydropyrido[3,4-d]pyrimidin-4-amine], for which the IC50 lay in the range of 100 to 500 nM.

Regarding `C=CS(=O)(=O)CCN(C)c1nc(OCC23CCCN2CCC3)nc2c1CCN(c1cccc3cccc(Cl)c13)C2` [Example 49, 7-(8-chloronaphthalen-1-yl)-2-((hexahydro-1H-pyrrolizin-7a-yl)methoxy)-N-methyl-N-(2-(vinylsulfonyl)ethyl)-5,6,7,8-tetrahydropyrido[3,4-d]pyrimidin-4-amine], the IC50 is below 10 nM.

Take `C=CS(=O)(=O)C1CN(c2nc(OC[C@@H]3CCCN3C)nc3c2CCN(c2cccc4cccc(Cl)c24)C3)C1` [Example 50, (S)-7-(8-chloronaphthalen-1-yl)-2-((1-methylpyrrolidin-2-yl)methoxy)-4-(3-(vinylsulfonyl)azetidin-1-yl)-5,6,7,8-tetrahydropyrido[3,4-d]pyrimidine]: the IC50 is above 500 nM.
